Reference: patent US6780994B2, “Phthalimido arylpiperazines useful in the treatment of benign prostatic hyperplasia” (Ortho-McNeil Pharmaceutical, Inc., priority 1998, dated 2004)

Tests used:
α1a-AR = biological target: T1, α1a-AR (Homo sapiens, UniProt P35348); assay: radioligand ([125I]-HEAT) receptor binding assay, COS cell membranes expressing cloned receptor; details: [125I]-HEAT 50 pM, 1 hour room temperature
T1 construct: expressed in transfected cells; host or cells: COS cells, pcDNA3 vector, transient DEAE-dextran transfection
T1 sequence (P35348 1-466): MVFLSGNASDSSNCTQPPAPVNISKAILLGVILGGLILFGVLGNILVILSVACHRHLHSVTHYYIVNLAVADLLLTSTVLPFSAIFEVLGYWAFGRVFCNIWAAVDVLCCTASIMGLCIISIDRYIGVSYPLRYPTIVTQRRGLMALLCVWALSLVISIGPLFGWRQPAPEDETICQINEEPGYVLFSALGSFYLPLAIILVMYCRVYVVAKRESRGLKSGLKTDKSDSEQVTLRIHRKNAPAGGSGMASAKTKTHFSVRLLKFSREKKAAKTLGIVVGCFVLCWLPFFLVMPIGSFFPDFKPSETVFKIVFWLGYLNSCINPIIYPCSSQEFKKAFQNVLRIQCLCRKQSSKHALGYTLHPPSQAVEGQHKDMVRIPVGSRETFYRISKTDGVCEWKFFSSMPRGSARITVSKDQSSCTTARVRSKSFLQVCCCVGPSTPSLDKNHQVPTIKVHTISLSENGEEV
Excerpt: The first assay tested the ability of compounds of Formula I to bind to membrane bound receptors α1a-AR, α1b-AR and α1d-AR.
The DNA sequences of the three cloned human α1-AR subtypes have been published. […] We used published DNA sequence information to design primers for use in RT-PCR amplification of each subtype to obtain cloned cDNAs. Human poly A+ RNA was obtained from commercially available sources and included hippocampus and prostate samples, sources which have been cited in the literature. For the primary screen a radioligand binding assay was used which employed membrane preparations from cells expressing the individual cloned receptor cDNAs. […] Each α1 receptor subtype was cloned from poly A+ RNA by the standard method of reverse transcription-polymerase chain reaction (RT-PCR). The following sources of polyA+ RNA were used for the cloning of the α1 receptor subtypes: α1a-AR, human hippocampus and prostate, α1b-AR, human hippocampus, α1d-AR, human hippocampus. The resulting cDNAs were cloned into the pcDNA3 mammalian expression vector (Invitrogen Corp., San Diego Calif.). Each DNA was sequenced for verification and to detect any possible mutations introduced during the amplification process. Any deviation in sequence from the published consensus for each receptor subtype was corrected by site-directed mutagenesis.
The three α1-AR subtypes (a, b, d) were transfected into COS cells using a standard DEAE-dextran procedure with a chloroquine shock. […] Approximately 72 hours post-transfection, the cells were harvested and COS membranes were prepared. Transfected COS cells from 25 plates (100 mm) were scraped and suspended in 15 mL of TE buffer (50 mM Tris-HCl, 5 mM EDTA, pH 7.4). The suspension was disrupted with a homogenizer. It was then centrifuged at 1000× g for 10 minutes at 4° C. […] The pellet was resuspended in 5 mL TNE buffer (50 mM Tris-HCl, 5 mM EDTA, 150 mM NaCl, pH 7.4). The resulting membrane preparation was aliquoted and stored at −70° C. The protein concentration was determined following membrane solubilization with TritonX-100.
The ability of each compound to bind to each of the α1-AR subtypes was assessed in a receptor binding assay. […] The plate was incubated for 1 hour at room temperature and the reaction mixtures were filtered through a Packard GF/C Unifilter filter plate. The filter plate was dried for 1 hour in a vacuum oven. Scintillation fluid ([…]) was added to each well, and the filter plate was counted in a Packard Topcount scintillation counter. Data was analyzed using GraphPad Prism software.

rat prostatic tissue = assay: norepinephrine-induced contractile response of rat prostatic tissue strips; type: cell-based; details: norepinephrine-induced contraction, Long Evans rat prostatic strips, 1 gram tension, 32° C.; read-out: IC50 of inhibition of contractile response in prostate tissue
Excerpt: (§1) The contractile responses of rat prostatic tissue and rat aorta tissues were examined in the presence and absence of antagonist compounds. As an indication of the selectivity of antagonism, test compound effects on vascular smooth muscle contractility (α1b-AR and α1d-AR) were compared to the effects on prostatic smooth muscle (α1a-AR). Strips of prostatic tissue and aortic rings were obtained from Long Evans derived male rats weighing 275 grams and sacrificed by cervical dislocation. The prostate tissue was placed under 1 gram tension in a 10 ml bath containing phosphate buffered saline pH 7.4 at 32° C. and isometric tension was measured with force transducers. The aortic tissue was placed under 2 grams tension in a 10 ml bath containing phosphate buffered saline pH 7.4 at 37° C.

rat aorta tissues = assay: norepinephrine-induced contractile response of rat aortic rings; type: cell-based; details: norepinephrine-induced contraction, Long Evans rat aortic rings, 2 grams tension, 37° C.; read-out: IC50 of inhibition of contractile response in aortic tissue
Excerpt: as §1

Row | Compound | IC50 (α1a-AR) [nM] | IC50 (rat prostatic tissue) [nM] | IC50 (rat aorta tissues) [nM]
1 | CC(C)Oc1ccccc1N1CCN(CC(O)CNC(=O)c2ccc3c(c2)C(=O)N(c2cccc(F)c2)C3=O)CC1 (racemic) [Compound 4] | 1.5 | 640 | 63200
2 | CC(C)Oc1ccccc1N1CCN(C[C@@H](O)CNC(=O)c2ccc3c(c2)C(=O)N(c2cccc(F)c2)C3=O)CC1 [Compound 9] | 1 | 230 | 6500
3 | CC(C)Oc1ccccc1N1CCN(CC(O)CNC(=O)c2ccc3c(c2)C(=O)N(c2cccnc2)C3=O)CC1 (centres unmarked) [Compound 11] | 1.9 | – | –
4 | CC(C)Oc1ccccc1N1CCN(C[C@@H](O)CNC(=O)c2ccc3c(c2)C(=O)N(c2ccc(N(C)C)cc2)C3=O)CC1 [Compound 21, (S)-2-[4-(dimethylamino)phenyl]-2,3-dihydro-N-[2-hydroxy-3-[4-[2-(1-methylethoxy)phenyl]-1-piperazinyl]propyl]-1,3-dioxo-1H-isoindole-5-carboxamide] | 0.36 | 810 | 22400
5 | COc1ccccc1N1C(=O)c2ccc(C(=O)NCC(O)CN3CCN(c4ccccc4OC(C)C)CC3)cc2C1=O (centres unmarked) [Compound 26] | 1.6 | – | –
6 | CC(C)Oc1ccccc1N1CCN(CC(O)CNC(=O)c2ccc3c(c2)C(=O)N(c2cc(F)cc(F)c2)C3=O)CC1 (centres unmarked) [Compound 29] | 0.89 | – | –
7 | CC(C)Oc1ccccc1N1CCN(CC(O)CNC(=O)c2ccc3c(c2)C(=O)N(c2ccc([N+](=O)[O-])cc2)C3=O)CC1 (centres unmarked) [Compound 30] | 1.8 | – | –
8 | Cc1ccc(N2C(=O)c3ccc(C(=O)NCC(O)CN4CCN(c5ccccc5OC(C)C)CC4)cc3C2=O)cc1C (centres unmarked) [Compound 39] | 0.44 | – | –
9 | CCOc1ccccc1N1CCN(CC(O)CNC(=O)c2ccc3c(c2)C(=O)N(c2cccc(F)c2)C3=O)CC1 (centres unmarked) [Compound 42] | 4.25 | – | –
10 | COc1ccccc1N1CCN(CC(O)CNC(=O)c2ccc3c(c2)C(=O)N(c2cccc(F)c2)C3=O)CC1 (centres unmarked) [Compound 43] | 22 | – | –
11 | Cc1ccc(N2C(=O)c3ccc(C(=O)NCCCN4CCN(c5ccccc5OC(C)C)CC4)cc3C2=O)cc1 [Compound 46] | 0.1 | – | –
12 | Cc1cccc(N2C(=O)c3ccc(C(=O)NCC(O)CN4CCN(c5ccccc5OC(C)C)CC4)cc3C2=O)c1 (centres unmarked) [Compound 49] | 0.9 | – | –
13 | CC(C)Oc1ccccc1N1CCN(CC(O)CNC(=O)c2ccc3c(c2)C(=O)N(c2ccc(F)cc2)C3=O)CC1 (centres unmarked) [Compound 50] | 1.5 | – | –
14 | Cc1ccc(N2C(=O)c3ccc(C(=O)NCC(O)CN4CCN(c5ccccc5OC(C)C)CC4)cc3C2=O)cc1 (centres unmarked) [Compound 52] | 0.66 | – | –
15 | CC(C)Oc1ccccc1N1CCN(CC(O)CNC(=O)c2ccc3c(c2)C(=O)N(c2ccc(Cl)cc2)C3=O)CC1 (centres unmarked) [Compound 53] | 0.95 | – | –
16 | CC(C)Oc1ccccc1N1CCN(CC(O)CNC(=O)c2ccc3c(c2)C(=O)N(c2cccc(Cl)c2)C3=O)CC1 (centres unmarked) [Compound 54] | 0.73 | – | –
17 | CC(C)Oc1ccccc1N1CCN(CC(O)CNC(=O)c2ccc3c(c2)C(=O)N(c2ccc(Cl)c(Cl)c2)C3=O)CC1 (centres unmarked) [Compound 56] | 0.81 | – | –
18 | CC(C)Oc1ccccc1N1CCN(CC(O)CNC(=O)c2ccc3c(c2)C(=O)N(c2ccc(O)cc2)C3=O)CC1 (centres unmarked) [Compound 58] | 0.88 | – | –

Further lines, results first:

Row | IC50 (α1a-AR) [nM] | IC50 (rat prostatic tissue) [nM] | IC50 (rat aorta tissues) [nM] | Compound
19 | 0.46 | – | – | CC(C)Oc1ccccc1N1CCN(CC(O)CNC(=O)c2ccc3c(c2)C(=O)N(c2ccc(O)cc2)C3=O)CC1 (single isomer, unassigned) [Compound 35]
20 | 0.41 | 130 | 2800 | CC(C)Oc1ccccc1N1CCN(CCCNC(=O)c2ccc3c(c2)C(=O)N(c2cccc(F)c2)C3=O)CC1 [Compound 6]
21 | 7 | – | – | COC(CNC(=O)c1ccc2c(c1)C(=O)N(c1cccc(F)c1)C2=O)CN1CCN(c2ccccc2OC(C)C)CC1 (centres unmarked) [Compound 14]
22 | 8 | – | – | CC(C)Oc1ccccc1N1CCN(C[C@H](O)CNC(=O)c2ccc3c(c2)C(=O)N(c2cccc(F)c2)C3=O)CC1 [Compound 27]
23 | 0.8 | – | – | CC(C)Oc1ccccc1N1CCN(CC(O)CNC(=O)c2ccc3c(c2)C(=O)N(c2ccc(N(C)C)cc2)C3=O)CC1 (centres unmarked) [Compound 28]
24 | 0.93 | – | – | COc1ccc(N2C(=O)c3ccc(C(=O)NCC(O)CN4CCN(c5ccccc5OC(C)C)CC4)cc3C2=O)cc1OC (centres unmarked) [Compound 38]
25 | 3.5 | – | – | CC(C)Oc1ccccc1N1CCN(CC(O)CNC(=O)c2ccc3c(c2)C(=O)N(c2ccc(C(C)(C)C)cc2)C3=O)CC1 (centres unmarked) [Compound 41]
26 | 0.18 | – | – | CC(C)Oc1ccccc1N1CCN(CCCNC(=O)c2ccc3c(c2)C(=O)N(c2ccc(N(C)C)cc2)C3=O)CC1 [Compound 44]
27 | 0.11 | 40 | 3300 | COc1ccc(N2C(=O)c3ccc(C(=O)NCCCN4CCN(c5ccccc5OC(C)C)CC4)cc3C2=O)cc1 [Compound 45]
28 | 0.2 | – | – | CC(C)Oc1ccccc1N1CCN(CCCNC(=O)c2ccc3c(c2)C(=O)N(c2ccc(O)cc2)C3=O)CC1 [Compound 47]
29 | 1 | – | – | CC(=O)c1ccc(N2C(=O)c3ccc(C(=O)NCC(O)CN4CCN(c5ccccc5OC(C)C)CC4)cc3C2=O)cc1 (centres unmarked) [Compound 48]
30 | 0.9 | – | – | CC(C)Oc1ccccc1N1CCN(CC(O)CNC(=O)c2ccc3c(c2)C(=O)N(c2ccccc2)C3=O)CC1 (centres unmarked) [Compound 51]
31 | 0.74 | – | – | CC(C)Oc1ccccc1N1CCN(CC(O)CNC(=O)c2ccc3c(c2)C(=O)N(c2cccc(C(F)(F)F)c2)C3=O)CC1 (centres unmarked) [Compound 57]
